Values after ≈ are worked out from the molar mass of the structure shown.
How the values were obtained:
[1] = tested on: Staphylococcus anvens 10B; assay: Chemotherapeutic efficacy in vivo against systemic infection in mice (ED50); details: female SPF MF2 mice; for ED50: Staphylococcus, 10B, sc
Source text: (§1) B. Die chemotherapeutische Wirksamkeit in vivo gegen systemische Infektionen in weiblichen SPF, MF2 Mäusen wurde nach der Methode von Zak., 0., et al., 1979, Drugs Exptl. Clin. Res. 5, 45-59, ermittelt. Die gefundenen ED50-Werte in Milligramm Substanz pro Kilogramm Maus (mg/kg) für eine Anzahl von Mikroorganismen werden für die oral (p.o.) oder subcutan (s.c.) applizierten Testverbindungen in der Tabelle 2 angegeben.

Escherichia coli 205 [2] = assay: as above; details: s.c., female SPF MF2 mice; for ED50: Escherichia coli, 205, sc
Source text: as §1

Proteus morganii 2359 = assay: as above; details: s.c., female SPF MF2 mice; for ED50: Morganella morganii, 2359, sc
Source text: as §1

[3] = tested on: Pseudomonas aeruginosa 799/61; assay: Antibiotic activity in vitro, agar dilution method in DST agar (MIC); type: cell-based; details: for MIC: Pseudomonas aeruginosa, 799/61
Source text: (§2) A. Die antibiotische Aktivität der Testverbindungen in vitro wurde durch die Agarverdünnungsmethode nach Ericsson, H.M., und Sherris, S.C., 1971, Acta Path. Microb. Scand. Section B, Suppl. No. 217, Bd. 1-90, in DST Agar ermittelt. Die gefundenen, das Wachstum der Testorganismen noch hemmenden Minimalkonzentrationen (MIC = minimum inhibiting concentrations) werden in Mikrogramm pro Milliliter […] für die geprüften Verbindungen in der Tabelle 1 angegeben.

[4] = tested on: Klebsiella pneumoniae 327; assay: as above; type: cell-based; details: for MIC: Klebsiella pneumoniae, 327
Source text: as §2

Escherichia coli 205 [5] = assay: as above; type: cell-based; details: for MIC: Escherichia coli, 205
Source text: as §2

[6] = tested on: Salmonella typhimurium 277; assay: as above; type: cell-based; details: for MIC: Salmonella enterica, TYPHIMURIUM
Source text: as §2

For `NC(=O)c1cc[n+](CC2=C(C(=O)[O-])N3C(=O)C(NC(=O)C(NC(=O)OC[C@@H](N)C(=O)O)c4csc(N)n4)C3SC2)cc1` (stereo partly drawn) [Testverbindung 26, 3-(4-Carbamoylpyridiniomethyl)-7β-[(2R,S)-2-((2R)-2-amino-2-car-boxyäthoxycarbonylamino)-2-(2-aminothiazol-4-yl)-acetamido]-3-cephem-4-carboxylat], the “ED50 Staphylococcus anvens 10B” value ([1]; s.c.) was over 30 mg/kg, the “ED50 Escherichia coli 205” value (Escherichia coli 205 [2]) was 1 mg/kg and the “ED50 Proteus morganii 2359” value (Proteus morganii 2359) was 70 mg/kg. The “MIC Pseudomonas aeruginosa 799/61” value [3] was 0,5 µg/ml, the “MIC Klebsiella pneumoniae 327” value [4] was 0,1 µg/ml and the “MIC Escherichia coli 205” value (Escherichia coli 205 [5]) was 0,1 µg/ml. The “MIC Salmonella typhimurium 277” value [6] was 0,1 µg/ml.

For `NC(=O)c1cc[n+](CC2=C(C(=O)[O-])N3C(=O)[C@@H](NC(=O)C(NC(=O)OC[C@@H](N)C(=O)O)c4csc(N)n4)[C@H]3SC2)cc1` (stereo partly drawn) [Testverbindung 26], the ED50 [1] was 15 mg/kg, the ED50 (Escherichia coli 205 [2]) was 9 mg/kg and the ED50 (Proteus morganii 2359) was 10 mg/kg. For the same compound, the MIC [3] was 0.5 µg/mL (≈ 0.806 µM), the MIC [4] was 0.5 µg/mL (≈ 0.806 µM) and the MIC (Escherichia coli 205 [5]) was 0.2 µg/mL (≈ 0.322 µM). It also gave an MIC [6] of 0.2 µg/mL (≈ 0.322 µM).

Work on `CO[C@@]1(NC(=O)CCCNC(=O)OC[C@@H](N)C(=O)O)C(=O)N2C(C(=O)O)=C(COC(C)=O)CS[C@@H]21` [Testverbindung 27] yielded an ED50 [1] of over 30 mg/kg, an ED50 (Escherichia coli 205 [2]) of 14 mg/kg and an ED50 (Proteus morganii 2359) of 8 mg/kg. It also gave an MIC [3] of 0.5 µg/mL (≈ 0.964 µM), an MIC [4] of 1 µg/mL (≈ 1.93 µM) and an MIC (Escherichia coli 205 [5]) of 1 µg/mL (≈ 1.93 µM). It also gave an MIC [6] of 1 µg/mL (≈ 1.93 µM).

`CO[C@@]1(NC(=O)CCCNC(=O)OC[C@@H](N)C(=O)O)C(=O)N2C(C(=O)O)=C(CSc3nnnn3C)CS[C@@H]21` [Testverbindung 28] was tested, and the ED50 [1] was over 30 mg/kg, the ED50 (Escherichia coli 205 [2]) was 4 mg/kg and the ED50 (Proteus morganii 2359) was 5 mg/kg. The MIC [3] was 0.2 µg/mL (≈ 0.348 µM), the MIC [4] was 0.5 µg/mL (≈ 0.87 µM) and the MIC (Escherichia coli 205 [5]) was 1 µg/mL (≈ 1.74 µM). It also gave an MIC [6] of 0.5 µg/mL (≈ 0.87 µM).

With `CC(=O)OCC1=C(C(=O)O)N2C(=O)[C@@H](NC(=O)CCCNC(=O)OC[C@@H](N)C(=O)O)[C@H]2SC1` [Testverbindung 29] the ED50 [1] was over 30 mg/kg, the ED50 (Escherichia coli 205 [2]) was 7 mg/kg and the ED50 (Proteus morganii 2359) was 75 mg/kg. It also gave an MIC [3] of 1 µg/mL (≈ 2.05 µM), an MIC [4] of 4 µg/mL (≈ 8.19 µM) and an MIC (Escherichia coli 205 [5]) of 32 µg/mL (≈ 65.5 µM). For the same compound, the MIC [6] was 2 µg/mL (≈ 4.09 µM).

Work on `Cn1nnnc1SCC1=C(C(=O)O)N2C(=O)[C@@H](NC(=O)CCCNC(=O)OC[C@@H](N)C(=O)O)[C@H]2SC1` [Testverbindung 30] yielded an ED50 [1] of over 30 mg/kg, an ED50 (Escherichia coli 205 [2]) of 1.7 mg/kg and an ED50 (Proteus morganii 2359) of 10 mg/kg. For the same compound, the MIC [3] was 0.5 µg/mL (≈ 0.918 µM), the MIC [4] was 0.5 µg/mL (≈ 0.918 µM) and the MIC (Escherichia coli 205 [5]) was 2 µg/mL (≈ 3.67 µM). It also gave an MIC [6] of 0.5 µg/mL (≈ 0.918 µM).
